US11505533B2, “Metabolically stable N-acylaminooxadiazoles useful as antibacterial agents” (MICROBIOTIX, INC., priority 2017, dated 2022)
Converted amounts (≈) assume the structure as drawn.

Assays:
[1] = system: E. coli TolC(−); experiment: TolC(−) MIC (NB); format: cell-based; conditions: Escherichia coli, read-out: TolC(−) MIC (μM)(NB)
[2] = system: E. coli TolC(−); conditions: MIC in the presence of 10% fetal calf serum versus without
[3] = Mouse serum stability; conditions: 5 μM, 37° C., 4 h

Row | SMILES | MIC [1] [µM] | Fold Serum Shift vs. TolC(−) [2] [fold] | Serum Stability (% remain) [3] [%]
1 | CC1(C)CCCN(C(=O)Nc2nnc(-c3ccc(F)cc3)o2)CC1 [compound 4922] | 12.5 (≈ 4.15 µg/mL) |  | 
2 | CC1=C(Br)CN(C(=O)Nc2nnc(-c3ccc(F)cc3)o2)CC1 [compound 4923] | 0.78 (≈ 0.297 µg/mL) | 18 | >95
3 | O=C(Nc1nnc(C2CCCCC2)o1)c1ccc(OC2CCCCC2)nc1 [compound 4925] | 1.56 (≈ 0.578 µg/mL) |  | 
4 | O=C(Nc1nnc(C2COc3ccccc3O2)o1)c1ccc(OC2CCCCC2)nc1 (stereo not shown) [compound 4926] | 1.56 (≈ 0.659 µg/mL) |  | 
5 | O=C(Nc1nnc(-c2ccc(F)cc2)o1)N1CCC(F)(F)C1 [compound 4930] | 19.8 (≈ 6.18 µg/mL) |  | 
6 | O=C(Nc1nnc(-c2ccc(F)cc2)o1)N1CCC2(C1)CC2(F)F (stereo not shown) [compound 4931] | 28.1 (≈ 9.49 µg/mL) |  | 
7 | O=C(Nc1nnc(-c2ccc(F)cc2)o1)N1CC(C(F)F)C2(CC2)C1 (stereo not shown) [compound 4932] | 17.7 (≈ 6.23 µg/mL) |  | 
8 | CCC1CCN(C(=O)Nc2nnc(-c3ccc(F)cc3)o2)CC1 [compound 4933] | 6.25 (≈ 1.99 µg/mL) |  | 
9 | CCCC1CCN(C(=O)Nc2nnc(-c3ccc(F)cc3)o2)CC1 [compound 4934] | 6.25 (≈ 2.08 µg/mL) |  | 
10 | O=C(Nc1nnc(-c2ccc(F)cc2)o1)N1CCC=CCC1 [compound 4935] | 12.5 (≈ 3.78 µg/mL) |  | 
11 | O=C(Nc1nnc(-c2ccc(F)cc2)o1)N1CCc2ccccc2CC1 [compound 4936] | 6.25 (≈ 2.2 µg/mL) |  | 
12 | CC(C)(C)C1CCCN(C(=O)Nc2nnc(-c3ccc(F)cc3)o2)CC1 (stereo not shown) [compound 4937] | 11.1 (≈ 4 µg/mL) |  | 
13 | CC(C)(C)C1CCN(C(=O)Nc2nnc(-c3ccc(F)cc3)o2)CC1 [compound 4938] | 4.96 (≈ 1.72 µg/mL) |  | 
14 | O=C(Nc1nnc(-c2ccc(F)cc2)o1)N1CCC2(CCCC2)CC1 [compound 4939] | 6.25 (≈ 2.15 µg/mL) |  | 
15 | O=C(Nc1nnc(-c2ccc(F)cc2)o1)N1CCc2sccc2C1 [compound 4940] | 3.13 (≈ 1.08 µg/mL) |  | 
16 | CCOC1CCN(C(=O)Nc2nnc(-c3ccc(F)cc3)o2)CC1 [compound 4993] | 44.5 (≈ 14.9 µg/mL) |  | 

Row | SMILES | MIC [1] [µM] | Fold Serum Shift vs. TolC(−) [2] [fold] | Serum Stability (% remain) [3] [%]
17 | CC(C)OC1CCN(C(=O)Nc2nnc(-c3ccc(F)cc3)o2)CC1 [compound 4994] | 44.5 (≈ 15.5 µg/mL) |  | 
18 | CC(C)(C)OC1CCN(C(=O)Nc2nnc(-c3ccc(F)cc3)o2)CC1 [compound 4995] | 25 (≈ 9.06 µg/mL) |  | 
19 | O=C(Nc1nnc(-c2ccc3c(c2)CCC3)o1)N1CCC(Cl)=C(Cl)C1 [compound 5154] | 1.75 (≈ 0.664 µg/mL) |  | 
20 | O=C(Nc1nnc(-c2ccc3c(c2)CCC3)o1)N1CC=C(C(F)(F)F)CC1 [compound 5155] | 1.97 (≈ 0.745 µg/mL) |  | 
21 | O=C(Nc1nnc(-c2ccc(F)cc2)o1)N1CCC(c2ccccc2)CC1 [compound 5199] | 5.57 (≈ 2.04 µg/mL) |  | 
22 | C[C@@H]1CCCN(C(=O)Nc2nnc(-c3ccc(F)cc3)o2)C1 [compound 5200] | 12.5 (≈ 3.8 µg/mL) |  | 
23 | O=C(Nc1nnc(-c2ccc(F)cc2)o1)N1CCCC(O)C1 (stereo not shown) [compound 5201] | > 100 |  | 
24 | Cc1cc(F)cc(C)c1-c1nnc(NC(=O)N2CCc3ccccc3C2)o1 [compound 5202] | 7.02 (≈ 2.57 µg/mL) |  | 
25 | Cc1cc(F)cc(C)c1-c1nnc(NC(=O)N2CCC(Cl)=C(Cl)C2)o1 [compound 5203] | 0.781 (≈ 0.301 µg/mL) |  | 
26 | Cc1cc(F)cc(C)c1-c1nnc(NC(=O)N2CC=C(C(F)(F)F)CC2)o1 [compound 5204] | 4.96 (≈ 1.91 µg/mL) |  | 
27 | CC(C)C1CCCN(C(=O)Nc2nnc(-c3ccc(F)cc3)o2)C1 (stereo not shown) [compound 5212] | 7.02 (≈ 2.33 µg/mL) |  | 
28 | Cc1ccccc1-c1nnc(NC(=O)N2CCc3ccccc3C2)o1 [compound 5214] | 7.02 (≈ 2.35 µg/mL) |  | 
29 | Cc1ccccc1-c1nnc(NC(=O)N2CCC(Cl)=C(Cl)C2)o1 [compound 5215] | 1.56 (≈ 0.551 µg/mL) |  | 
30 | CC1=CCN(C(=O)Nc2nnc(-c3c(C)cc(F)cc3C)o2)CC1 [compound 5216] | 12.5 (≈ 4.13 µg/mL) |  | 
31 | O=C(Nc1nnc(-c2ccc(N3CCCC3)cc2)o1)N1CCc2ccccc2C1 [compound 5222] | 25 (≈ 9.74 µg/mL) |  | 
32 | O=C(Nc1nnc(-c2ccc(N3CCCC3)cc2)o1)N1CC=C(C(F)(F)F)CC1 [compound 5223] | 11.1 (≈ 4.54 µg/mL) |  | 
